From PMC9788418, “Design, Synthesis and Biological Evaluation of Syn and Anti-like Double Warhead Quinolinones Bearing Dihydroxy Naphthalene Moiety as Epidermal Growth Factor Receptor Inhibitors with Potential Apoptotic Antiproliferative Action” (Molecules, 2022)

What was measured:
[1] = system: four tested cancer cell lines (A-549, MCF-7, Panc-1, HT-29); assay: Antiproliferative assay, average over the four cell lines; format: cell-based, human; conditions: for GI50: Homo sapiens, mean of the four cancer cell lines
Method: The newly synthesized compounds were tested for antiproliferative activity against four different types of cancer cells: A-549 (epithelial cancer cell line), MCF-7 (breast cancer cell line), Panc-1 (pancreas cancer cell line), and HT-29 (colon cancer cell line).
After 24 h, medium was removed from the plates and the compounds in (in 0.1% DMSO) were added (in 200 μL medium to yield a final concentration of 0.1% v/v) to the wells of plates. A single compound was designated with four wells followed by incubation of plates for 96h at 37°C. After incubation, medium was removed completely from the plates followed by addition of MTT (0.4 mg/mL in medium) to each well and subsequent incubation of plates for 3h. MTT (along with the medium) was removed and DMSO (150μL) was added to each well of the culture plates, followed by vortexing and subsequent measurement of absorbance (at 540 nm) using microplate reader. The data are shown as percentage inhibition of proliferation in comparison with controls containing 0.1% 4.2.1.2. Assay for antiproliferative effect
To explore the antiproliferative potential of compounds MTT assay was performed according to previously reported procedure using different cell lines to explore the antiproliferative potential of compounds propidium iodide fluorescence assay was performed using different cell lines. To calculate the total nuclear DNA, a fluorescent dye (propidium iodide, PI) is used which can attach to the DNA, thus offering a quick and precise technique. PI cannot pass through the cell membrane and its signal intensity can be considered as directly proportional to quantity of cellular DNA. Cells whose cell membranes are damaged or have changed permeability are counted as dead ones. The assay was performed by seeding the cells of different cell lines at a density of 3000-7500 cells/well (in 200µl medium) in culture plates followed by incubation for 24h at 37 °C in humidified 5% CO2/95% air atmospheric conditions. The medium was removed; the compounds were added to the plates at 10 µM concentrations (in 0.1% DMSO) in triplicates, followed by incubation for 48 h. DMSO (0.1%) was used as control. After incubation, medium was removed followed by the addition of PI (25 µl, 50µg/mL in water/medium) to each well of the plates. At -80 °C, the plates were allowed to freeze for 24 h, followed by thawing at 25 °C. A fluorometer (Polar-Star BMG Tech) was used to record the readings at excitation and emission wavelengths of 530 and 620 nm for each well. The percentage cytotoxicity of compounds was calculated using the following formula:
Where ATC= Absorbance of treated cells and AC= Absorbance of control. Erlotinib was used as positive control in the assay.

Row | SMILES | GI50 [1] | fold more potent than 4c (GI50) ([1]; relative to 4c) | fold less potent than erlotinib (GI50) ([1]; relative to erlotinib) | melting point
1 | Cc1ccc2[nH]c(=O)cc(-n3cc(COc4cccc5cccc(OCc6cn(-c7cc(=O)[nH]c8ccc(C)cc78)nn6)c45)nn3)c2c1 [Compound 4b, 4,4′-(((naphthalene-1,8-diylbis(oxy))bis(methylene))bis(1H-1,2,3-triazole-4,1-diyl))-bis(6-methylquinolin-2(1H)-one)] | 45 nM | 1.8 fold | 1.4 fold | 
2 | O=c1cc(-n2cc(COc3cccc4cccc(OCc5cn(-c6cc(=O)[nH]c7ccccc67)nn5)c34)nn2)c2ccccc2[nH]1 [Compound 4a, 4,4′-(((naphthalene-1,8-diylbis(oxy))bis(methylene))bis(1H-1,2,3-triazole-4,1-diyl))-bis-(quinolin-2(1H)-one)] | 34 nM |  |  | > 360 °C
